The source of these data is PMC6927504, “Screening of House Dust from Chinese Homes for Chemicals with Liver X Receptors Binding Activities and Characterization of Atherosclerotic Activity Using an in Vitro Macrophage Cell Line and ApoE^−/− Mice” (Environmental Health Perspectives, 2019).

One assay has as its system RAW264.7 macrophages. As to the kind of experiment: Cellular NBD-cholesterol efflux assay in RAW264.7 macrophages. The format is cell-based. The protocol:
RAW264.7 cells were obtained from the National Infrastructure of Cell Line Resource of Beijing, China, and the cells used for the experiment were cultured for at least three passages. Dulbecco’s Modified Eagle’s Medium (DMEM)-F12 medium containing 10% fetal bovine serum (FBS) was employed to culture the RAW264.7 cells. RAW264.7 cells were incubated at 37°C with 5% carbon dioxide. The RAW264.7 cells were plated at 2.5×10^5 cells/well (6-well plates), 6.0×10^4 cells/well (24-well plates), and 10^4 cells/well (96-well plates). […] Then the cells were used for the quantitative reverse transcription (qRT)-PCR, cellular cholesterol efflux assay, and foam cell formation experiment.
RAW264.7 cells or mouse peritoneal macrophages were plated in 96-well plates at 10^4 cells/well and cultured with DMEM-F12 containing 10% FBS and 1μg/mL 22-[N-(7-nitrobenz-2-oxa-1,3-diazol-4-yl)amino]-23,24-bisnor-5-cholen-3β-Ol (NBD-cholesterol) for 24 h. […] NBD-cholesterol in the medium and cell lysis buffer were measured, respectively, using a Tecan Infinite® M1000Pro Microplate Reader (Tecan Group Ltd.) at 485-nm excitation wavelength and 535-nm emission wavelength. Cholesterol efflux was expressed as a percentage of fluorescence in the medium relative to the total amount of fluorescence.

The test system of assay [1] is mouse peritoneal macrophages. As to the kind of experiment: NBD-cholesterol efflux in peritoneal macrophages isolated from exposed C57BL/6 mice. The class given is in vivo. The note with it: 200 mg/kg BW for 7 d. Here is the method:
RAW264.7 cells or mouse peritoneal macrophages were plated in 96-well plates at 10^4 cells/well and cultured with DMEM-F12 containing 10% FBS and 1μg/mL 22-[N-(7-nitrobenz-2-oxa-1,3-diazol-4-yl)amino]-23,24-bisnor-5-cholen-3β-Ol (NBD-cholesterol) for 24 h. Subsequently, the medium was completely removed and fresh DMEM-F12 containing 10% FBS and 0.1% DMSO (control; n=3 ) or TPHP at the concentration of 1–20,000 nM ( n=3 per group) was added. After a further 24-h incubation, the cells were washed with phosphate-buffered saline (PBS) and then incubated with serum-free medium containing ApoA-I ( 20μg/mL ) or high-density lipoprotein (HDL; 50μg/mL ) for 4 h. Then the medium was collected, and the cells were lysed with a cell lysis buffer. NBD-cholesterol in the medium and cell lysis buffer were measured, respectively, using a Tecan Infinite® M1000Pro Microplate Reader (Tecan Group Ltd.) at 485-nm excitation wavelength and 535-nm emission wavelength. Cholesterol efflux was expressed as a percentage of fluorescence in the medium relative to the total amount of fluorescence.
All experiments related to animals were approved by the institutional animal care and use committee of Peking University and followed the guidelines for animal experiments of the university as well as for experimental animals in China. […] Body weight (BW) was measured every week during the dosing period. […]

Assay [2] has as its system human primary preadipocytes. More on the design: method as in Tung et al. 2017. The note with it: ref Tung et al. 2017; cited from earlier work.

As to `O=P(Oc1ccccc1)(Oc1ccccc1)Oc1ccccc1` [TPHP, triphenyl phosphate], the “NBD-cholesterol efflux mediated by ApoA-I” value in the assay on RAW264.7 macrophages (100–20,000 nM) was “significantly inhibited”. In addition, the “NBD-cholesterol efflux mediated by HDL” value in the assay with RAW264.7 macrophages (1,000–20,000 nM) is recorded as “significantly inhibited”. Besides, in assay [1], the “ApoA-I-mediated cholesterol efflux in peritoneal macrophages” value is on record as “Significant inhibition” and the “HDL-mediated cholesterol efflux in peritoneal macrophages” value was “Significant inhibition”. The Adipogenesis result in assay [2] was “promote adipogenesis”.
